Patent US5854280A, “Antifungal sordaridin derivatives” (Glaxo Wellcome S.A., priority 1994, dated 1998)
Values after ≈ are worked out from the molar mass of the structure shown.

Legend:
Test in all cases: in vitro antifungal MIC, two-fold serial dilution
[1] = test system: C. albicans 1208E; type: cell-based, Candida albicans
Procedure: (§1) The in vitro evaluation of the anti-fungal activity of compounds of the invention was performed on liquid or solid medium by the anti-fungal two-fold serial dilution technique of determining the minimum inhibitory concentration (MIC) of anti-fungal agent that inhibited development of growth after 24 to 48 hours of incubation at 37° C. In practice, a series of agar plates or broth microdilution panels containing two-fold dilutions of anti-fungal agent tested were inoculated with a standard culture of a clinically relevant pathogen, for example, Candida albicans. The agar plates or broth microdulution panels were then examined for the presence or absence of growth of the fungus and the appropriate MIC values were noted.
(§2) Compounds of formula (I) have been tested for anti fungal activity in a standard in vitro screen and the minimum inhibiting concentration (MIC; μg/ml) determined for each compound against a variety of clinically relevant pathogens.

[2] = test system: C. albicans 4711; type: cell-based, Candida albicans
Procedure: as §1, §2

[3] = test system: C. albicans 2005E; type: cell-based, Candida albicans
Procedure: as §1, §2

[4] = test system: C. aibicans 2402E; type: cell-based, Candida albicans
Procedure: as §1, §2

[5] = test system: C. glabrata 2375E; type: cell-based, Candida glabrata
Procedure: as §1, §2

[6] = test system: C. glabrata 2376E; type: cell-based, Candida glabrata
Procedure: as §1, §2

[7] = test system: C. neoformans 2867E; type: cell-based, Cryptococcus neoformans
Procedure: as §1, §2

[8] = test system: C. psuedotropicalis 2371E; type: cell-based, Candida pseudotropicalis
Procedure: as §1, §2

[9] = test system: C. tropicalis 2808E; type: cell-based, Candida tropicalis
Procedure: as §1, §2

| Structure (SMILES) | MIC (minimum inhibiting concentration) [1] [ng/mL] | MIC (minimum inhibiting concentration) [2] [ng/mL] | MIC (minimum inhibiting concentration) [3] [ng/mL] | MIC (minimum inhibiting concentration) [4] [ng/mL] | MIC (minimum inhibiting concentration) [5] [µg/mL] | MIC (minimum inhibiting concentration) [6] [µg/mL] | MIC (minimum inhibiting concentration) [7] [µg/mL] | MIC (minimum inhibiting concentration) [8] [ng/mL] | MIC (minimum inhibiting concentration) [9] [µg/mL] |
| --- | --- | --- | --- | --- | --- | --- | --- | --- | --- |
| CC(C)C1=CC2CC3(C=O)C4CCC(C)C4CC2(COC2OC(C)C4OC(C)(C)OC4C2O)C13C(=O)O [Example 1, [1R-(1α,3aβ,4β,4aβ,7β,7aα,8aβ)]8a-[(6-Deoxy-3,4-O-isopropylidene-β-D-altropyranosyloxy)methyl]-4-formyl-4,4a,5,6,7,7a,8,8a-octahydro-7-methyl-3-(1-methylethyl)-1,4-methano-s-indacene-3a(1H)-carboxylic acid] | 500 (≈ 0.964 µM) | 280 (≈ 0.54 µM) | 120 (≈ 0.231 µM) | 500 (≈ 0.964 µM) | 31.00 (≈ 59.8 µM) | 31.00 (≈ 59.8 µM) | > 125 | 60 (≈ 0.116 µM) | 1.000 (≈ 1.93 µM) |
| CC(C)C1=CC2CC3(C=O)C4CCC(C)C4CC2(COC2CC4OC(C)(C)OC4C(C)O2)C13C(=O)O [Example 6, [1R-(1α,3aβ,4β,4aβ,7β,7aα,8aβ)]8a-[(2,6-Dideoxy-3,4-O-isopropylidene-β-D-allopyranosyloxy)methyl]-4-formyl-4,4a,5,6,7,7a,8,8a-octahydro-7-methyl-3-(1-methylethyl)-4-methano-s-indacene-3a(1H)-carboxylic acid] | 8 (≈ 0.0159 µM) | 4 (≈ 0.00796 µM) | 1 (≈ 0.00199 µM) | 8 (≈ 0.0159 µM) | 31.00 (≈ 61.7 µM) | 31.00 (≈ 61.7 µM) | 8.00 (≈ 15.9 µM) | 4 (≈ 0.00796 µM) | 0.120 (≈ 0.239 µM) |
| CC(C)C1=CC2CC3(C=O)C4CCC(C)C4CC2(COC2CC4OCOC4C(C)O2)C13C(=O)[O-].[Na+] (stereo not drawn) [Example 13] | 15 | 15 | 8 | 15 | 8.00 | 8.00 | 0.500 | 8 | 0.120 |
| CC(C)C1=CC2CC3(C=O)C4CCC(C)C4CC2(COC2CC4OCC(C)C4C(C)O2)C13C(=O)O [Example 16, [1R-(1α,3aβ,4β,4aβ,7β,7aα,8aβ)]8a-[[1S,4S,6R,8R]-2,7-Dioxa-4,6-dimethyl-cis-bicyclo[3.4.0]-non-8-yl-oxy-methyl]-4-formyl-4,4a,5,6,7,7a,8,8a-octahydro-7-methyl-3-(1-methylethyl)-1,4-methano-s-indacene-3a(1H)-carboxylic acid] | 1 (≈ 0.00205 µM) | 1 (≈ 0.00205 µM) | 1 (≈ 0.00205 µM) | 1 (≈ 0.00205 µM) | 8.00 (≈ 16.4 µM) | 8.00 (≈ 16.4 µM) | 1.00 (≈ 2.05 µM) | < 1 | 0.008 (≈ 0.0164 µM) |
| CC(C)C1=CC2CC3(C=O)C4CCC(C)C4CC2(COC2CC4C(C)COC4C(C)O2)C13C(=O)[O-].[Na+] [Example 20, [1R-(1α,3aβ,4β,4aβ,7β,7aα,8aβ)]8a-[[1S,4R,7R,9R]-2,8-Dioxa-4,9-dimethyl-cis-bicyclo[3.4.0]-7-yl-oxy-methyl]-4-formyl-4,4a,5,6,7,7a,8,8a-octahydro-7-methyl-3-(1-methylethyl)-1,4-methano-s-indacene-3a(1H)-carboxylic acid, sodium salt] | ≤ 1 | ≤ 1 | ≤ 1 | ≤ 1 | 0.500 | 0.500 | 0.250 | 4 | 0.008 |
| C=C1COC2C(C)OC(OCC34CC5C(C)CCC5C5(C=O)CC3C=C(C(C)C)C54C(=O)[O-])CC12.[Na+] [Example 34, [1R-(1α,3aβ,4β,4aβ,7β,7aα,8aβ)]8a-[[1S,7R,9R]-2,8-Dioxa-9-methyl-4-methylene-cis-bicyclo[3.4.0]-non-7-yl-oxy-methyl]-4-formyl-4,4a, 5,6,7,7a,8,8a-octahydro-7-methyl-3-(1-methylethyl)-1,4-methano-s-indacene-3a(1H)-carboxylic acid, sodium salt] | 1 | 1 | 1 | 1 | 1.000 | 1.000 | ≤ 0.250 | ≤ 1 | 0.150 |
| CC(C)C1=CC2CC3(C=O)C4CCC(C)C4CC2(COC2CC4C(=O)COC4C(C)O2)C13C(=O)O [Example 37, [1R-(1α,3aβ,4β,4aβ,7β,7aα,8aβ)]8a-[[1S,7R,9R]-2,8-Dioxa-9-methyl-4-oxo-cis-bicyclo[3.4.0]-non-7-yl-oxy-methyl]-4-formyl4,4a,5,6,7,7a,8,8a-octahydro-7-methyl-3-(1-methyl-ethyl)-1,4-methano-s-indacene-3a(1H)-carboxylic acid] | 60 (≈ 0.123 µM) | 30 (≈ 0.0617 µM) | 1 (≈ 0.00206 µM) | 60 (≈ 0.123 µM) | 4.00 (≈ 8.22 µM) | 6.00 (≈ 12.3 µM) | ≤ 0.250 | 60 (≈ 0.123 µM) | 0.500 (≈ 1.03 µM) |
| CC(C)C1=CC2CC3(C=O)C4CCC(C)C4CC2(COC2CC4=CCOC4C(C)O2)C13C(=O)O [Example 43, [1R-(1α,3aβ,4β,4aβ,7β,7aα,8aβ)]8a-[(1S,7R,9R)-2,8-Dioxa-9-methyl-bicyclo[3,4,0]-non-4-ene-7-yl-oxymethyl]-4-formyl-4,4a,5,6,7,7a,8,8a-octahydro-7-methyl-3-(1-methylethyl)-1,4-methano-s-indacene-3a(1H)-carboxylic acid] | 1 (≈ 0.00212 µM) | 1 (≈ 0.00212 µM) | 1 (≈ 0.00212 µM) | 1 (≈ 0.00212 µM) | 4.00 (≈ 8.5 µM) | 4.00 (≈ 8.5 µM) | 2.00 (≈ 4.25 µM) | < 1 | 0.500 (≈ 1.06 µM) |
| COC1C(C)OC(OCC23CC4C(C)CCC4C4(C=O)CC2C=C(C(C)C)C43C(=O)O)C2SC12 [Example 51, [1R-(1α,3aβ,4β,4aβ,7β,7aα,8aβ)]8a-[(2,3-Epithio-4-O-methyl-2,3,6-trideoxy-β-D-mannopyranosyloxy)methyl]-4-formyl-4,4a,5,6,7,7a,8,8a-octahydro-7-methyl-3-(1-methylethyl)-1,4-methano-s-indacene-3a(1H)-carboxylic acid] | 120 (≈ 0.245 µM) | 120 (≈ 0.245 µM) | 30 (≈ 0.0611 µM) | 120 (≈ 0.245 µM) | 16.00 (≈ 32.6 µM) | 16.00 (≈ 32.6 µM) | ≤ 125 | 8 (≈ 0.0163 µM) | 0.500 (≈ 1.02 µM) |
| CCCOC1C(C)OC(OCC23CC4C(C)CCC4C4(C=O)CC2C=C(C(C)C)C43C(=O)O)C2OC12 [Example 52, [1R-(1α,3aβ,4β,4aβ,7β,7aα,8aβ)]8a-[(2,3-Anhydro-6-deoxy-4-O-propyl-β-D-mannopyranosyloxy)methyl]-4-formyl-4,4a,5,6,7,7a,8,8a-octahydro-7-methyl-3-(1-methylethyl)-1,4-methano-s-indacene-3a(1H)-carboxylic acid] | 4 (≈ 0.00796 µM) | 4 (≈ 0.00796 µM) | 1 (≈ 0.00199 µM) | 8 (≈ 0.0159 µM) | 8.00 (≈ 15.9 µM) | 8.00 (≈ 15.9 µM) | 1.00 (≈ 1.99 µM) | 1 (≈ 0.00199 µM) | 0.030 (≈ 0.0597 µM) |
